Assay [1] addresses T1, PCC7942_orf1594 protein (acyl-ACP reductase) (Synechococcus elongatus, UniProt Q54765).
T1 construct: His-tag (C); made in house; host or cells: E. coli BL21 (DE3)
T1 sequence (Q54765 1-341): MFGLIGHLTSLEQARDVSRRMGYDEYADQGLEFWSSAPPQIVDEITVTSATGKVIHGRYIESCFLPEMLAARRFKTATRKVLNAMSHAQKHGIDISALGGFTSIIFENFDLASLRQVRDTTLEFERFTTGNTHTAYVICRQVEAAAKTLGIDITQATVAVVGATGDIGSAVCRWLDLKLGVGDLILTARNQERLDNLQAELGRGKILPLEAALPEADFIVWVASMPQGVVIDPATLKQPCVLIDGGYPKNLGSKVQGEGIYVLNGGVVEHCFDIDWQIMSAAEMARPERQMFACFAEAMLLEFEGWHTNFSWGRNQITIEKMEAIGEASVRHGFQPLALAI
The experiment in a line: acyl-ACP or acyl-CoA reductase enzyme assay with purified PCC7942_orf1594 protein. The assay is classed as biochemical, Synechococcus elongatus PCC7942. The following applies: for reduction of acyl substrate to fatty aldehyde by PCC7942_orf1594: GC/MS detection of octadecanal/octadecenal, NADPH and divalent cation required. How it is done:
The genomic DNA encoding S. elongatus […] orf1594 (SEQ ID NO:65) was cloned into the NcoI and XhoI sites of vector pET-28b under the control of the T7 promoter. The resulting PCC7942_orf1594 protein contained a C-terminal His-tag. An E. coli BL21 strain (DE3) (Invitrogen) was transformed with the plasmid and PCC7942_orf1594 protein was expressed and purified as described in Example 22. The protein solution was stored in the following buffer: 50 mM sodium phosphate, pH 7.5, 100 mM NaCl, 1 mM THP, 10% glycerol. Protein concentration was determined using the Bradford assay (Biorad). 2 mg/mL of PCC7942_orf1594 protein was obtained.
To test PCC7942_orf1594 protein for acyl-ACP or acyl-CoA reductase activity, the following enzyme assays were set-up. 100 μL reactions were set-up in 50 mM Tris-HCl buffer at pH 7.5 with the following components at their respective final concentrations: 10 μM of purified PCC7942_orf1594 protein, 0.01-1 mM acyl-CoA or acyl-ACP, 2 mM MgCl2, 0.2-2 mM NADPH. The reactions were incubated for 1 h at 37° C. and where stopped by adding 100 μL ethyl acetate (containing 5 mg/l 1-octadecene as internal standard). Samples were vortexed for 15 min and centrifuged at max speed for 3 min for phase separation. 80 μL of the top layer were transferred into GC glass vials and analyzed by GC/MS as described in Example 26. The amount of aldehyde formed was calculated based on the internal standard.

The target in assay [2] is T2, Npun02004178 protein (fatty aldehyde decarbonylase) (Nostoc punctiforme, UniProt B2J1M1).
T2 construct: His-tag (N); made in house; host or cells: E. coli BL21 (DE3)
T2 sequence (B2J1M1 1-232): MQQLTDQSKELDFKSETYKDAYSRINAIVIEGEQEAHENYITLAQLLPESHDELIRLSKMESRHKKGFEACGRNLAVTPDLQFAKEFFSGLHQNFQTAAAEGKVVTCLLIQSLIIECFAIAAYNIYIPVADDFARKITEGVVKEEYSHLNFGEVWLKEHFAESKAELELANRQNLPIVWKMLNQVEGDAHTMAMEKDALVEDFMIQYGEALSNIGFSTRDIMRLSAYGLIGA
Kind of assay: in-vitro fatty aldehyde decarbonylase assay with purified Npun02004178 protein. Format: biochemical, Nostoc punctiforme PCC73102. The following applies: 200 μM octadecanal, 30 μM Npun02004178, spinach ferredoxin, ferredoxin reductase and NADPH; 37° C., 2 h. The procedure:
The genomic DNA encoding N. punctiforme PCC73102 Npun02004178 (SEQ ID NO:5) was cloned into the NdeI and XhoI sites of vector pET-15b under the control of the T7 promoter. The resulting Npun02004178 protein contained an N-terminal His-tag. An E. coli BL21 strain (DE3) (Invitrogen) was transformed with the plasmid by routine chemical transformation techniques. Protein expression was carried out by first inoculating a colony of the E. coli strain in 5 mL of LB media supplemented with 100 mg/L of carbenicillin and shaken overnight at 37° C. to produce a starter culture. This starter cultures was used to inoculate 0.5 L of LB media supplemented with 100 mg/L of carbenecillin. […] Protein concentration was determined using the Bradford assay (Biorad). […]
To test Npun02004178 protein for decarbonylation activity, the following enzyme assays were set-up. […] Samples were analyzed by GC/MS using the following parameters: run time: 13.13 min; column: HP-5-MS Part No. 19091S-433E (length of 30 meters; I.D.: 0.25 mm narrowbore; film: 0.25 iM); inject: 1 ii Agilent 6850 inlet; inlet: 300 C splitless; carrier gas: helium; flow: 1.3 mL/min; oven temp: 75° C. hold 5 min, 320 at 40° C./min, 320 hold 2 min; det: Agilent 5975B VL MSD; det. temp: 330° C.; scan: 50-550 M/Z. Heptadecane from Sigma was used as an authentic reference for determining compound retention time and fragmentation pattern. […]

`NC(=O)C1=CN([C@@H]2O[C@H](COP(=O)(O)OP(=O)(O)OC[C@H]3O[C@@H](n4cnc5c(N)ncnc54)[C@H](O)[C@@H]3O)[C@@H](O)[C@H]2O)C=CC1` [NADH, reference compound]: in assay [1] (octadecanoyl-CoA as substrate, Mg2+), the “support of reductase activity as electron donor” value is on record as “did not support reductase activity”.

Usually Km stands for the concentration of substrate that gives half-maximal velocity. Take `NC(=O)C1=CN([C@@H]2O[C@H](COP(=O)(O)OP(=O)(O)OC[C@H]3O[C@@H](n4cnc5c(N)ncnc54)[C@H](OP(=O)(O)O)[C@@H]3O)[C@@H](O)[C@H]2O)C=CC1` [NADPH, reference compound]: the Km in assay [1] (in the presence of 0.5 mM octadecanoyl-CoA, read-out: Km value for NADPH) is 400 ± 80 µM.

octadecenoyl-ACP: the “reduction of acyl substrate to fatty aldehyde by PCC7942_orf1594” value (from here on “reduction of acyl substrate”) in assay [1] was “also able to reduce”.

Regarding octadecenoyl-CoA, the “reduction of acyl substrate” value in assay [1] was “also able to reduce”.

Consider `CCCCCCCCCCCCCCCCCC(=O)SCCNC(=O)CCNC(=O)[C@H](O)C(C)(C)COP(=O)(O)OP(=O)(O)OC[C@H]1O[C@@H](n2cnc3c(N)ncnc32)[C@H](O)[C@@H]1OP(=O)(O)O` [octadecanoyl-CoA], for which, in assay [1], the “reduction of acyl substrate” value is given as “able to reduce octadecanoyl-CoA to octadecanal”.

As to `CCCCCCCCCCCCCCCCCC=O` [octadecanal], in assay [2], the “in-vitro decarbonylation to heptadecane” value was “in-vitro conversion of octadecanal to heptadecane was observed”.

Source of the values: patent US9670512B2, “Methods and compositions for producing fatty alcohols or fatty aldehydes” (REG Life Sciences, LLC, priority 2008, dated 2017).
